The values below come from patent EP0642348B1, “[…] PEPTIDES AND METHODS OF THEIR USE” (THE REGENTS OF THE UNIVERSITY OF CALIFORNIA, priority 1992, dated 2000).

No end group written: not given here.

Assay [1] relates to isogenic phoP mutant of S. typhimurium (strain CS015 phoP102::Tn10d-Cam). The experiment in a line: agar (plate) diffusion antibacterial assay, clear zones. The format is cell-based. The conditions noted are these: phoP mutant (attenuated, avirulent) S. typhimurium; modified plate diffusion assay; result in words, compared with wild-type. From the text: (§1) • Figure 1 provides the consensus structures of mouse cryptdins 1-5 and rat cryptdin-1. Amino acid residues are indicated by single-letter code. Dashed lines are included in mouse cryptdin-4 and rat cryptdin-1 in order to preserve the consensus sequence where these peptides are shorter than other cryptdins. Invariant residues in the enteric cryptdin peptides are boxed. […] Acid extract of jejunum and ileum was chromatographed in 30% acetic acid on a P-60 column. Fractions indicated by the bracket (panel A) were pooled and rechromatographed on the P-60 column (panel B). Cryptdin containing fractions (bracket, panel B) were pooled and further purified by RP-HPLC on 0.46 x 25 cm Vydac C-18 column. Water-acetonitrile gradient elution (--) using 0.13% (vol/vol) HFBA as modifier was used to purify cryptdins 1-5. […] Samples of low molecular weight enteric peptides obtained by P-60 gel filtration (Figure 2, [panel B]) and purified cryptdins were electrophoresed on a 12.5% acid-urea gel and stained with formalin-containing Coomassie Blue. […] After incubation at 37°C for 18 hours, antimicrobial activity was evaluated by measurement of the diameters of the clear zones. […]
(§2) The antimicrobial, or antibacterial, activity of cryptdins can be measured against various pathogens. […]

The subject of assay [2] is wild-type Salmonella typhimurium (ATCC 10428). The assay is described as above. The note with it: wild-type S. typhimurium; modified plate diffusion assay; result in words, compared with the phoP mutant. Type of assay: cell-based.
Source text: as §1, §2

The subject of assay [3] is phoP mutant S. typhimurium. The conditions noted are these: compared to wild-type parent strains; Fields et al., Miller et al. 1990; cited from earlier work.

With “NP-1: rabbit defensin (VVCACRRALCLPRERRAGFCRIRGRIHPLCCRR; ends and bridges not checked; cysteine pairing not given here; UniProt P01376 63-95, looked up)”, the antimicrobial activity entry in assay [1] and in assay [2] was “quite similar” throughout. Besides, the “sensitivity of mutants in the phoP locus” value in assay [3] was “particularly sensitive”.

Regarding “NP-2: rabbit defensin (VVCACRRALCLPLERRAGFCRIRGRIHPLCCRR; ends and bridges not checked; cysteine pairing not given here; UniProt P01377 63-95, looked up)”, the “sensitivity of mutants in the phoP locus” value in assay [3] is given as “particularly sensitive”.
